The text below walks through data of PMC5466964, “Alkyl Protocatechuate-Loaded Nanostructured Lipid Systems as a Treatment Strategy for Paracoccidioides brasiliensis and Paracoccidioides lutzii In Vitro” (Frontiers in Microbiology, 2017).

Series [1] concerns Paracoccidioides brasiliensis S1 isolate 18 (Pb18). Put plainly: MIC by microdilution (CLSI M27-A3 modified, alamar blue), Pb18. The note with it: read-out: Pb18 MIC. It is filed as cell-based. The protocol: (§1) Paracoccidioides brasiliensis S1 isolate 18 (Pb18-chronic PCM/São Paulo, Brazil), P. brasiliensis S2 (02-chronic PCM/Venezuela), and P. lutzii Pb01-strain ATCC MYA-826 (acute PCM/Goiânia, Brazil) were obtained from the mycology collection of the Mycology Laboratory, School of Pharmaceutical Sciences and were maintained in Fava-Netto agar medium at 37°C.
(§2) The MIC assay was performed according to the microdilution method described by Clinical and Laboratory Standards Institute ([CLSI, 2008]) document M27-A3 with modifications ([de Paula e Silva et al., 2013]). Alkyl derivatives of protocatechuic acid (hexyl, heptyl, octyl, nonyl, decyl, and dodecyl protocatechuates) were diluted according to CLSI M27-S3. The yeast suspension was adjusted to a final concentration of 1.5 × 10^3 CFU/mL in RPMI-1640 medium (Sigma–Aldrich, St. Louis, MO, United States) in 96-well plates and serial dilutions (from 250 to 0.24 μg/mL) of the compounds were then added; AMB and ITC were used as controls. The plates were incubated on a shaker at 37°C/150 rpm for a specific duration individually determined for each microorganism. The MIC was determined using alamar blue (Sigma–Aldrich, St. Louis, MO, United States) at 530 and 570 nm; a change from the original blue color of the reagent to pink […]. Following 72 or 96 h of incubation. The Minimum Fungicide Concentration (MFC) was determined by transferring an aliquot from the wells to Brain Heart Infusion (BHI) medium supplemented with 2% glucose (Difco, BD Biosciences) plates, which were then incubated at 37°C for 5–7 days. The MFC was defined as the concentration that inhibited growth ([Soares et al., 2014]).
A general note: Dilution methods test growth across graded concentrations, often in twofold steps.

For series [2], the system named is P. lutzii Pb01-strain ATCC MYA-826. Put plainly: MIC by microdilution (CLSI M27-A3 modified, alamar blue), Pb01. It is filed as cell-based. To be noted: Paracoccidioides lutzii, read-out: Pb01 MIC. As to the method:
as §1, §2

Series [3] has as its system P. brasiliensis S2 (02) (Pb02). Put plainly: MIC by microdilution (CLSI M27-A3 modified, alamar blue), Pb02. It is filed as cell-based. The note with it: Paracoccidioides brasiliensis, read-out: Pb02 MIC, P. brasiliensis Pb02. The protocol:
as §1, §2

Series [4] in a line: Cytotoxicity assay, 0.4% sulforhodamine B, MRC5. It is filed as cell-based. To be noted: human, MRC5 cells; for IC50 at 24 h: 24 h treatment, SRB; for viability at 24 h: at MIC, read-out: cell viability at the MIC values. As to the method:
The cytotoxicity of the protocatechuates was assessed in the MRC5 cell line (MRC5) obtained from the American Type Culture Collection (ATCC; Manassas, VA, United States) and HepG2 cell line obtained from the Biotechnology Laboratory Biotech (UNICAMP, Brazil). The plates were first incubated with 1 × 10^5 cells per well at 36.5°C under 5% CO2 for 24 h to form a cell monolayer ([Husøy et al., 1993]). Compounds were tested at different concentrations ranging from 0.12 to 62.5 μg/mL using serial dilutions in a total volume of 100 μL per well. After the 24 h treatment the cytotoxicity was assessed by the 0.4% sulforhodamine B (SRB) ([Vichai and Kirtikara, 2006]). The assay is sensitive and measures the cellular protein content of adherent or suspension cultures in 96-well plates. Cells were fixed with trichloroacetic acid (TCA) and then stained for 30 min with SRB dissolved in acetic acid. In mildly acidic conditions, SRB binds on basic amino acid residues on TCA-fixed cells. The unbound dye is then removed after washing and the dye bound to the protein is solubilized in basic medium (Tris-base). The absorbance was measured at 570 nm. The result of the percentage of viable cells was performed using the following formula: according to [Rajpoot et al. (2012)] with minor modification.
Viable cells % = (test mean - hite mean/mean negative control - mean white) × 100

Series [5] relates to P. brasiliensis (Pb18) adhesion to fibronectin matrix. In words: Inhibition of P. brasiliensis 18 adhesion to artificial ECM: fibronectin. It is filed as cell-based, Paracoccidioides brasiliensis. The note with it: Pb18, 3 h adhesion, 24 h treatment. The protocol:
(§3) Initially, 24-well plates were coated with ECM of fibronectin and laminin, respectively (Sigma–Aldrich, St. Louis, MO, United States) at a concentration of 50 μg/mL for 18 h at 4°C followed by incubation for 1 h at 37°C. The plates were then washed three times with PBS and fungal suspension was added at a concentration of 1.5 × 10^3 CFU/mL, which had been inoculated into the 24-well plate previously sensitized with ECM and incubated at 37°C for 1, 3, or 5 h. Subsequently, the supernatant was removed, the plate was washed with PBS, and then 300 μL of trypsin was added (Sigma). The supernatant was obtained and then centrifuged at 10,000 rpm for 5 min at (4°C). The new supernatant was discarded and 500 μL of FACS buffer was added for subsequent cell counting by flow cytometry (BD FACS Canto and BD FACS Diva software analysis). Following the adhesion period, treatment with the selected compound (dodecyl and NLS+dodecyl) was performed for 24 h at 37°C. RPMI-1640 with L-glutamine and 2% glucose was used to maintain adequate nutritional status. Subsequently, the supernatant was removed and the plate was washed with PBS. Then, 300 μL of trypsin was added and centrifuged. The supernatant was discarded and 500 μL of FACS buffer was added to each tube for subsequent cell counting by flow cytometry (BD FACS Canto and BD FACS Diva software analysis).

Series [6] relates to P. brasiliensis (Pb18) adhesion to laminin matrix. In words: Inhibition of P. brasiliensis 18 adhesion to artificial ECM: laminin. The format is cell-based, Paracoccidioides brasiliensis. The note with it: Pb18, 3 h adhesion, 24 h treatment. The protocol: as §3
The test system of series [7] is P. brasiliensis (Pb 18) adhesion to cell line MRC5. Put plainly: Inhibition of P. brasiliensis 18 adhesion to cells (MRC5), flow cytometry. The format is cell-based, Paracoccidioides brasiliensis. The note with it: Pb18 on MRC5, 3 h adhesion, 24 h treatment. As to the method:
Cells (MRC5) were cultured at 36.5°C in 24-well plates and adjusted to 1 × 10^5 cells per well. A P. brasiliensis suspension (1.5 × 10^3 CFU/mL) was labeled with 10 μM of 5(6)-carboxyfluorescein diacetate N-succinimidyl ester (CFSE; Sigma–Aldrich) and then added to the cells. The plate was incubated for 3 h at 36.5°C under 5% CO2 to enable the adhesion process. Subsequent to treatment, dodecyl and NLS+dodecyl were applied and the plate was incubated for 24 h under the same conditions. The supernatant was removed and the plate was washed with PBS. Then, 300 μL of trypsin (Sigma–Aldrich,) was added and centrifuged. The supernatant was discarded and 500 μL of FACS buffer was added to each tube, for subsequent cell counting by flow cytometry (BD FACS Canto) and BD FACS Diva software analysis ([Mendes-Giannini et al., 1994], [2004]; [Hanna et al., 2000]).

The test system of series [8] is Caenorhabditis elegans wild-type strain N2. Put plainly: Toxicity assay in C. elegans model. The note with it: 24 h; for toxic effect on C. elegans survival: 0.03 to 125 μg/mL. The format is in vivo. The protocol: Caenorhabditis elegans wild-type strain N2 was routinely cultured at 22°C on nematode growth medium (NGM) plates seeded with E. coli strain OP50. For the toxicity assay, eggs were harvested to obtain synchronous cultures. After 3 days, worms in the L4 stage were washed with M9 buffer. Then, approximately 20 worms were transferred to each well of a 96-wells plate containing 100 μL of 60% M9 buffer, 40% BHI, 10 μg/mL cholesterol (in ethanol), 200 μg/mL ampicillin, and 90 μg/mL kanamycin. Next, 100 μL of dodecyl protocatechuate, NLS, or NLS+dodecyl were added to the medium with final compound concentrations in each well ranging from 0.03 to 125 μg/mL. The plate was incubated at 22°C for 24 h. Worm survival was evaluated based on mobility and form (worms with a stick shape were considered dead and worms with a sinusoidal shape were considered alive). Images were acquired using an IN Cell Analyzer 2000 (GE Healthcare), microscope (10×).

Values after ≈ are worked out from the molar mass of the structure shown. “Also recorded” adds a separate entry of the source.

Consider `CCCCCCCCCCCCOC(=O)c1ccc(O)c(O)c1` [dodecyl, Dodecyl protocatechuate], for which the values for the MIC in series [1], in series [2] and in series [3] were 0.48 mg/L (≈ 1.49 µM), 0.48 mg/L (≈ 1.49 µM) and 0.24 mg/L (≈ 0.744 µM), respectively. Further, in series [4], the IC50 (usually the concentration that gives 50% inhibition) at 24 h was 17.9 mg/L (≈ 55.5 µM). Further, the viability – broadly, a read-out of living cells in per cent, often relative to untreated cells – at 24 h in series [4] is 98%. Further, the “inhibition of adhesion to the fibronectin matrix” value in series [5] was determined as 64%. Further, the “inhibition of adhesion to the laminin matrix” value in series [6] turned out to be 75%. Besides, the “inhibition of adhesion to cells” value in series [7] was 65%. The “Survival percentage of C. elegans worms” value in series [8] (0.03 μg/mL), in series [8] (0.48 μg/mL), in series [8] (7.80 μg/mL), in series [8] (15.60 μg/mL), in series [8] (62.50 μg/mL) and in series [8] (125.00 μg/mL) was 100% throughout. Moreover, the “toxic effect on C. elegans survival” value in series [8] is “neither dodecyl nor NLS+dodecyl exhibited any toxic effects; also recorded: did not affect worm survival at any concentration”; in series [8] (listed as free dodecyl protocatechuate) it was “neither compound exhibited a toxic effect on survival”.

On to `C[C@@H]1[C@H](O)[C@@H](C)/C=C/C=C/C=C/C=C/C=C/C=C/C=C/[C@H](O[C@@H]2O[C@H](C)[C@@H](O)[C@H](N)[C@@H]2O)C[C@@H]2O[C@](O)(C[C@@H](O)C[C@@H](O)[C@H](O)CC[C@@H](O)C[C@@H](O)CC(=O)O[C@H]1C)C[C@H](O)[C@H]2C(=O)O` [AMB, Amphotericin B, reference compound], for which the figures for the MIC in series [1] and in series [2] were 0.13 mg/L (≈ 0.141 µM) and 0.06 mg/L (≈ 0.0649 µM), respectively. The IC50 at 24 h in series [4] amounted to 0.22 mg/L (≈ 0.238 µM).

As for `CCCCCCCCCCOC(=O)c1ccc(O)c(O)c1` [decyl, decyl protocatechuate], the values for the MIC in series [1], in series [2] and in series [3] were 0.97 mg/L (≈ 3.29 µM), 1.9 mg/L (≈ 6.45 µM) and 0.48 mg/L (≈ 1.63 µM), respectively. The compound also returned an IC50 at 24 h in series [4] of 16 mg/L (≈ 54.3 µM). In series [4], the viability at 24 h stood at 98%.

Consider `CCCCCCCOC(=O)c1ccc(O)c(O)c1` [heptyl, heptyl protocatechuate], for which the MIC (as a rule, the lowest concentration found to suppress growth) in series [1] amounted to 7.8 mg/L (≈ 30.9 µM); in series [2], 3.9 mg/L (≈ 15.5 µM); in series [3], 0.24 mg/L (≈ 0.951 µM). Inhibition in series [4] was half-maximal at 17.6 mg/L (≈ 69.8 µM) (IC50 at 24 h). The viability at 24 h in series [4] worked out at 65%.

Take `CCCCCCCCOC(=O)c1ccc(O)c(O)c1` [octyl, octyl protocatechuate]: the figures for the MIC in series [1], in series [2] and in series [3] were 0.97 mg/L (≈ 3.64 µM), 0.97 mg/L (≈ 3.64 µM) and 1.9 mg/L (≈ 7.13 µM), respectively. Besides, in series [4], inhibition was half-maximal at 33.7 mg/L (≈ 127 µM) (IC50 at 24 h). In addition, in series [4], the viability at 24 h was found to be 98%.

On to `CCCCCCOC(=O)c1ccc(O)c(O)c1` [hexyl, hexyl protocatechuate], for which the MIC in series [1] was found to be 3.9 mg/L (≈ 16.4 µM); in series [2] it was 7.8 mg/L (≈ 32.7 µM); in series [3], 1.9 mg/L (≈ 7.97 µM). The 50% inhibitory concentration (IC50) at 24 h in series [4] was found to be 29.5 mg/L (≈ 124 µM). Also, in series [4], the viability at 24 h came to 99%.

On to `CCC(C)n1ncn(-c2ccc(N3CCN(c4ccc(OCC5COC(Cn6cncn6)(c6ccc(Cl)cc6Cl)O5)cc4)CC3)cc2)c1=O` (stereo not drawn) [ITC, itraconazole, reference compound], for which the MIC was 0.02 mg/L (≈ 0.0283 µM) in series [1], 0.12 mg/L (≈ 0.17 µM) in series [2] and 0.01 mg/L (≈ 0.0142 µM) in series [3]. In addition, 0.1 mg/L (≈ 0.142 µM) corresponded to half-maximal inhibition in series [4] (IC50 at 24 h).

As to `CCCCCCCCCOC(=O)c1ccc(O)c(O)c1` [nonyl, nonyl protocatechuate], the MIC in series [1] is 1.9 mg/L (≈ 6.78 µM); in series [2], 0.97 mg/L (≈ 3.46 µM); in series [3], 0.48 mg/L (≈ 1.71 µM). The same compound registered an IC50 at 24 h in series [4] of 17.7 mg/L (≈ 63.1 µM). Besides, the viability at 24 h in series [4] was 96%.
